Assay results as given in patent publication US8574608B2, “Bactericidal silver surfactant delivery into coating and polymer compositions” (Eastern Michigan Universtity, priority 2007, dated 2013).
“And” between values parts separate entries of the source, which are not always exact repeats. Equal values may be shown once.

Legend:
[1] = system: E. coli; experiment: E. coli challenged by silver surfactants in commercial alkyd paint; assay type: cell-based, Escherichia coli; details: alkyd resin paint coating, 24 h contact time; also: key: A minus sign (−) denotes no growth; a plus sign (+) denotes confluent growth; a capital P (P) denotes particle growth
[2] = system: E. coli; experiment: E. coli challenged by silver surfactants in laboratory acrylic paint; assay type: cell-based, Escherichia coli; details: 24 h contact time; for surviving bacteria (growth): laboratory solvent borne acrylate paint coating; as to surviving bacteria (growth): key: A minus sign (−) denotes no growth; a plus sign (+) denotes confluent growth; a capital P (P) denotes particle growth
[3] = system: S. aureus; experiment: S. aureus challenged by silver surfactants in laboratory acrylic clearcoat; assay type: cell-based, Staphylococcus aureus; details: 24 h contact time; for surviving bacteria (growth): laboratory solvent borne acrylate clearcoat; as to surviving bacteria (growth): key: A minus sign (−) denotes no growth; a plus sign (+) denotes confluent growth; a capital P (P) denotes particle growth
[4] = system: E. coli; experiment: E. coli challenged by silver surfactants in commercial acrylic paint; assay type: cell-based, Escherichia coli; details: 24 h contact time; for surviving bacteria (growth): commercial solvent borne acrylate paint coating; as to surviving bacteria (growth): key: A minus sign (−) denotes no growth; a plus sign (+) denotes confluent growth; a capital P (P) denotes particle growth
[5] = system: E. coli; experiment: E. coli challenged by silver surfactants in commercial 2K epoxy paint; assay type: cell-based, Escherichia coli; details: 24 h contact time; for surviving bacteria (growth): commercial 2K epoxy paint coating
[6] = system: Staphylococcus aureus; experiment: Growth on agar plates containing sodium surfactant; assay type: cell-based; details: agar plates with sodium surfactant, replicates 1-2 or 1-3; also: test concentration or dose not given here
[7] = system: Streptococcus viridans; experiment: Growth on agar plates containing sodium surfactant; assay type: cell-based; details: agar plates with sodium surfactant; strain EM8; replicates 1-2 or 1-3
[8] = system: Staphylococcus epidermidis; experiment: Growth on agar plates containing sodium surfactant; assay type: cell-based; details: agar plates with sodium surfactant; strain EM3/ATCC12228; replicates 1-2 or 1-3
[9] = system: Enterococcus fecalis; experiment: Growth on agar plates containing sodium surfactant; assay type: cell-based; details: agar plates with sodium surfactant, replicates 1-2 or 1-3; also: test concentration or dose not given here
[10] = system: Streptococcus pyogenes; experiment: Growth on agar plates containing sodium surfactant; assay type: cell-based; details: agar plates with sodium surfactant; strain EM14; replicates 1-2 or 1-3
[11] = system: Micrococcus luteus; experiment: Growth on agar plates containing sodium surfactant; assay type: cell-based; details: agar plates with sodium surfactant; strain EM17; replicates 1-2 or 1-3
[12] = system: Bacillus subtilis; experiment: Growth on agar plates containing sodium surfactant; assay type: cell-based; details: agar plates with sodium surfactant, replicates 1-2 or 1-3; also: test concentration or dose not given here
[13] = system: Streptococcus agalactiae; experiment: Growth on agar plates containing sodium surfactant; assay type: cell-based; details: agar plates with sodium surfactant; strain EM13; replicates 1-2 or 1-3; also: test concentration or dose not given here
[14] = system: Streptococcus bovis; experiment: Growth on agar plates containing sodium surfactant; assay type: cell-based; details: agar plates with sodium surfactant; strain EM12; replicates 1-2 or 1-3

With `CCCCCCCCCCCCOS(=O)(=O)[O-].[Ag+]` [AgDS, Silver dodecylsufate] the “surviving bacteria (growth)” value ([1]; 0.0012 weight % Ag in coating) was “+”, the “surviving bacteria (growth)” value ([1]; 0.003 weight % Ag in coating) was “+” and the “surviving bacteria (growth)” value ([1]; 0.006 weight % Ag in coating) was “+”. The “surviving bacteria (growth)” value ([1]; 0.012 weight % Ag in coating) was “+”, the “surviving bacteria (growth)” value ([1]; 0.03 weight % Ag in coating) was “−” and the “surviving bacteria (growth)” value ([1]; 0.06 weight % Ag in coating) was “−”. For the same compound, the “surviving bacteria (growth)” value ([1]; 0.12 weight % Ag in coating) was “−”, the “silver level effective at preventing any growth” value ([2]; laboratory acrylic paint) was 0.03 % w/w and the “silver level with partial inhibition (only partial growth)” value ([2]; laboratory acrylic paint) was 0.012%. The “surviving bacteria (growth)” value ([2]; 0.0012 weight % Ag in coating) was “+”, the “surviving bacteria (growth)” value ([2]; 0.003 weight % Ag in coating) was “+” and the “surviving bacteria (growth)” value ([2]; 0.006 weight % Ag in coating) was “+”. For the same compound, the “surviving bacteria (growth)” value ([2]; 0.03 weight % Ag in coating) was “−”, the “surviving bacteria (growth)” value ([2]; 0.06 weight % Ag in coating) was “−” and the “surviving bacteria (growth)” value ([2]; 0.12 weight % Ag in coating) was “−”. For the same compound, the “surviving bacteria (growth)” value ([3]; 0.0012 weight % Ag in coating) was “−”, the “surviving bacteria (growth)” value ([3]; 0.003 weight % Ag in coating) was “−” and the “surviving bacteria (growth)” value ([3]; 0.006 weight % Ag in coating) was “−”. For the same compound, the “surviving bacteria (growth)” value ([3]; 0.012 weight % Ag in coating) was “−”, the “surviving bacteria (growth)” value ([3]; 0.03 weight % Ag in coating) was “−” and the “surviving bacteria (growth)” value ([3]; 0.06 weight % Ag in coating) was “−”. The “surviving bacteria (growth)” value ([3]; 0.12 weight % Ag in coating) was “−”, the “silver level effective at preventing any growth” value ([4]; commercial acrylic paint) was 0.03 % w/w and the “surviving bacteria (growth)” value ([4]; 0.0012 weight % Ag in coating) was “+”. For the same compound, the “surviving bacteria (growth)” value ([4]; 0.003 weight % Ag in coating) was “+”, the “surviving bacteria (growth)” value ([4]; 0.006 weight % Ag in coating) was “+” and the “surviving bacteria (growth)” value ([4]; 0.012 weight % Ag in coating) was “+”. The “surviving bacteria (growth)” value ([4]; 0.03 weight % Ag in coating) was “−”, the “surviving bacteria (growth)” value ([4]; 0.06 weight % Ag in coating) was “−” and the “surviving bacteria (growth)” value ([4]; 0.12 weight % Ag in coating) was “−”. For the same compound, the “surviving bacteria (growth)” value ([5]; 0.0012 weight % Ag in coating) was “+”, the “surviving bacteria (growth)” value ([5]; 0.003 weight % Ag in coating) was “+” and the “surviving bacteria (growth)” value ([5]; 0.006 weight % Ag in coating) was “+”. For the same compound, the “surviving bacteria (growth)” value ([5]; 0.03 weight % Ag in coating) was “−”, the “surviving bacteria (growth)” value ([5]; 0.06 weight % Ag in coating) was “−” and the “surviving bacteria (growth)” value ([5]; 0.12 weight % Ag in coating) was “−”. The “silver level giving complete inhibition of growth” value ([5]; commercial 2K epoxy paint) was 0.03 % w/w and the “silver level partially effective” value ([5]; commercial 2K epoxy paint) was 0.012 % w/w.

In the case of `CC(C)CC(C)OC(=O)CC(C(=O)OC(C)CC(C)C)S(=O)(=O)[O-].[Na+]` (stereo not shown) [Compound S4], the “Survival: No Growth/Full Growth” value ([6]; strain ATCC6538) is reported as “−”, the “Survival: No Growth/Full Growth” value ([6]; strain EM24/ATCC25923) is reported as “−” and the “Survival: No Growth/Full Growth” value [7] is reported as “+”. For the same compound, the “Survival: No Growth/Full Growth” value [8] was “−”, the “Survival: No Growth/Full Growth” value ([9]; strain EM19, first line) was “−” and the “Survival: No Growth/Full Growth” value ([9]; strain EM19, second line) was “+”. The “Survival: No Growth/Full Growth” value [10] was “−”, the “Survival: No Growth/Full Growth” value [11] was “−” and the “Survival: No Growth/Full Growth” value ([12]; strain ATCC33) was “−”. The “Survival: No Growth/Full Growth” value ([12]; strain EM27) was “−”, the “Survival: No Growth/Full Growth” value [13] was “−” and the “Survival: No Growth/Full Growth” value [14] was “−”.

In the case of “silver linearalkanebenzene sulfonate [AgLABS]”, the “surviving bacteria (growth)” value ([1]; 0.0012 weight % Ag in coating) is reported as “+”, the “surviving bacteria (growth)” value ([1]; 0.003 weight % Ag in coating) is reported as “+” and the “surviving bacteria (growth)” value ([1]; 0.006 weight % Ag in coating) is reported as “+”. The “surviving bacteria (growth)” value ([1]; 0.012 weight % Ag in coating) was “+”, the “surviving bacteria (growth)” value ([1]; 0.03 weight % Ag in coating) was “−” and the “surviving bacteria (growth)” value ([1]; 0.06 weight % Ag in coating) was “−”. The “surviving bacteria (growth)” value ([1]; 0.12 weight % Ag in coating) was “−”, the “silver level with partial inhibition (only partial growth)” value ([2]; laboratory acrylic paint) was 0.03% and the “surviving bacteria (growth)” value ([2]; 0.0012 weight % Ag in coating) was “+”. The “surviving bacteria (growth)” value ([2]; 0.003 weight % Ag in coating) was “+”, the “surviving bacteria (growth)” value ([2]; 0.006 weight % Ag in coating) was “+” and the “surviving bacteria (growth)” value ([2]; 0.012 weight % Ag in coating) was “+”. For the same compound, the “surviving bacteria (growth)” value ([2]; 0.06 weight % Ag in coating) was “−”, the “surviving bacteria (growth)” value ([2]; 0.12 weight % Ag in coating) was “−” and the “silver level at which partial growth is observed” value ([3]; laboratory acrylic clearcoat) was 0.012 % Ag w/w and 0.006 % Ag w/w. For the same compound, the “surviving bacteria (growth)” value ([3]; 0.0012 weight % Ag in coating) was “−”, the “surviving bacteria (growth)” value ([3]; 0.003 weight % Ag in coating) was “−” and the “surviving bacteria (growth)” value ([3]; 0.03 weight % Ag in coating) was “−”. For the same compound, the “surviving bacteria (growth)” value ([3]; 0.06 weight % Ag in coating) was “−”, the “surviving bacteria (growth)” value ([3]; 0.12 weight % Ag in coating) was “−” and the “silver level partially effective” value ([4]; commercial acrylic paint) was 0.03 % Ag w/w. For the same compound, the “surviving bacteria (growth)” value ([4]; 0.0012 weight % Ag in coating) was “+”, the “surviving bacteria (growth)” value ([4]; 0.003 weight % Ag in coating) was “+” and the “surviving bacteria (growth)” value ([4]; 0.006 weight % Ag in coating) was “+”. The “surviving bacteria (growth)” value ([4]; 0.012 weight % Ag in coating) was “+”, the “surviving bacteria (growth)” value ([4]; 0.06 weight % Ag in coating) was “−” and the “surviving bacteria (growth)” value ([4]; 0.12 weight % Ag in coating) was “−”. The “surviving bacteria (growth)” value ([5]; 0.0012 weight % Ag in coating) was “+”, the “surviving bacteria (growth)” value ([5]; 0.003 weight % Ag in coating) was “+” and the “surviving bacteria (growth)” value ([5]; 0.006 weight % Ag in coating) was “+”. The “surviving bacteria (growth)” value ([5]; 0.012 weight % Ag in coating) was “+”, the “surviving bacteria (growth)” value ([5]; 0.03 weight % Ag in coating) was “−” and the “surviving bacteria (growth)” value ([5]; 0.06 weight % Ag in coating) was “−”. For the same compound, the “surviving bacteria (growth)” value ([5]; 0.12 weight % Ag in coating) was “−” and the “silver level giving complete inhibition of growth” value ([5]; commercial 2K epoxy paint) was 0.03 % w/w.

`O=C(CC(C(=O)OC1CCCCC1)S(=O)(=O)[O-])OC1CCCCC1.[Na+]` (stereo not shown) [Compound S5] was tested, and the “Survival: No Growth/Full Growth” value ([6]; strain ATCC6538) was “+”, the “Survival: No Growth/Full Growth” value ([6]; strain EM24/ATCC25923) was “+” and the “Survival: No Growth/Full Growth” value [7] was “+”. For the same compound, the “Survival: No Growth/Full Growth” value [8] was “+”, the “Survival: No Growth/Full Growth” value ([9]; strain EM19, first line) was “+” and the “Survival: No Growth/Full Growth” value ([9]; strain EM19, second line) was “+”. The “Survival: No Growth/Full Growth” value [10] was “−”, the “Survival: No Growth/Full Growth” value [11] was “− (2×) and +” and the “Survival: No Growth/Full Growth” value ([12]; strain ATCC33) was “− and +”. For the same compound, the “Survival: No Growth/Full Growth” value ([12]; strain EM27) was “+”, the “Survival: No Growth/Full Growth” value [13] was “− and +” and the “Survival: No Growth/Full Growth” value [14] was “−”.
